Results reported in US20260345594A1, “Methods and Compositions for Controlling Jet Lag, Chronotype, or Circadian Rhythm” (University of Pittsburgh - Of the Commonwealth System of …, priority 2022, published 2026).

Assays:
[1] = biological target: T1, AVPR1a (human vasopressin 1a receptor, V1AR) (Homo sapiens, UniProt P37288); experiment: AVPR1a Presto-Tango luciferase screen; format: cell-based
T1 construct: V2 tail; expressed in transfected cells; host or cells: HTLA cells (HEK293 cell line with tTA-dependent luciferase reporter and β-arrestin2-TEV fusion)
T1 sequence (P37288 whole entry, the tested form may be a part): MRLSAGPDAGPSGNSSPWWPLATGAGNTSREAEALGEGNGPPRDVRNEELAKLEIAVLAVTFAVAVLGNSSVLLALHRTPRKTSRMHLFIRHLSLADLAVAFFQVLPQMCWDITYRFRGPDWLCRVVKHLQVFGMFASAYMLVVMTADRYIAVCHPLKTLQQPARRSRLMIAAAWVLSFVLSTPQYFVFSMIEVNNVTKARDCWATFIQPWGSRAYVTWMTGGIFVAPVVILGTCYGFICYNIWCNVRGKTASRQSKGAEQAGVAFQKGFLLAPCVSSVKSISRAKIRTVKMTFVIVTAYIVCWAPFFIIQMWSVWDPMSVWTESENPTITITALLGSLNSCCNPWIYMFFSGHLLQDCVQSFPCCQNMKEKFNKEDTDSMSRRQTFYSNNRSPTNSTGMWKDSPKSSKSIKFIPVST
Description: (§1) Presto-Tango Assay: Empty Tango plasmid was generated from Addgene plasmid #66225. Melanopsin was amplified by pcr from pAAV-GFAP104-melanopsin-mCherry (Addgene plasmid #122630) and AVPR1a from hV1aR-GFP (Addgene plasmid #67846) and cloned to generate OPN4- and AVPR1a-Tango plasmid. HTLA cells (a HEK293 cell line stably expressing a tTA-dependent luciferase reporter and a β-arrestin2-TEV fusion gene—a gift from Bryan Roth) was transfected with OPN4-Tango or AVPR1A-Tango plasmids. The HTLA Cells are grown in DMEM supplemented with 10% FBS, 100 U/ml penicillin and 100 μg/ml streptomycin, 2 μg/ml puromycin and 100 μg/ml hygromycin B (HTLA medium) in a humidified atmosphere at 37 °C in 5% CO2 (HTLA Medium).
(§2) Luciferase activity was measured using Bright-Glo Luciferase (Promega #E2160) assay.
(§3) Day 1: HTLA cells were plated in at 9 to 10×10^6 cells per 100 mm cell culture dish in HTLA Medium.
(§4) Day 2: The cells were transfected using the Polyethylenimine method. […]
(§5) Day 5: The medium containing drug solutions were removed from the wells (by aspiration or shaking), and 50 μL per well of Bright-Glo solution (Promega) diluted 10-fold in filter-sterilized assay buffer, which consisted of 20 mM HEPES and 1×HBSS at pH 7.4 and 1 mM Glucose were added to each well. After incubation for 15 to 20 minutes at room temperature, luminescence was counted in a BioTek-Flx-800 luminescence counter.

[2] = biological target: T2, Melanopsin (Homo sapiens, UniProt Q9UHM6); experiment: Melanopsin (OPN4) Presto-Tango luciferase screen; format: cell-based; details: HTLA cells, LED light, agonist alone, read-out: EC50 of receptor activation by the ligand
T2 construct: V2 tail; expressed in transfected cells; host or cells: HTLA cells (HEK293 cell line with tTA-dependent luciferase reporter and β-arrestin2-TEV fusion)
T2 sequence (Q9UHM6 1-478): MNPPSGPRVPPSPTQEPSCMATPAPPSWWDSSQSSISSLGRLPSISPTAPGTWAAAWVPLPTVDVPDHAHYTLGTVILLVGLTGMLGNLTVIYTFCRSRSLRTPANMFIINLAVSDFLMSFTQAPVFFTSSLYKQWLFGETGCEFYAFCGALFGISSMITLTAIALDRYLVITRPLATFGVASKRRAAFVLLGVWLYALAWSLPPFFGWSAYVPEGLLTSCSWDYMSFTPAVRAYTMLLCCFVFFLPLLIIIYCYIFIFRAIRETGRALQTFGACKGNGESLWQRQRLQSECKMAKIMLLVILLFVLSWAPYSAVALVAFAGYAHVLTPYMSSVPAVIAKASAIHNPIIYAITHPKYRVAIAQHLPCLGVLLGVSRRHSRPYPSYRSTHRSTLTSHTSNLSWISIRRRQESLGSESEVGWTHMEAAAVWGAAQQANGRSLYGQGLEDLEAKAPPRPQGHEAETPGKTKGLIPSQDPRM
Description: as §1, §2, §3, §4, §5

| IC50 ([1]; 5 nM Arginine Vasopressin, 16 hrs illumination (FIG. 9), inhibitor, read-out: EC50 (allosteric inhibition of AVPR1a, ratio of luciferase activity over positive control)) [nM] | V1AR inhibition validated by in vitro experiments ([1]; in words) | EC50 [2] [nM] | Compound |
| --- | --- | --- | --- |
| 360 | effective V1AR inhibitors |  | Cc1ccc2[nH]cc(CCNC(=O)Cn3c(=O)c(=O)n(Cc4ccccc4)c4ccccc43)c2c1 [MolPort-007-880-661] |
|  |  | ~250 | CC1=C(/C=C/C(C)=C\C=C\C(C)=C\C=O)C(C)(C)CCC1 [9-cis-Retinol] |
